According to patent publication US4057545A, “Imidazole derivatives” (Nordmark-Werke GmbH Hamburg, priority 1975, dated 1977):

Legend:
[1] = LD50 (mice); conditions: mouse, in vivo
[2] = mice; literature value; cited from earlier work
[3] = system: Candida albicans; experiment: oral effectiveness in Candida-infected mice (survival); format: in vivo; conditions: 100 mg/kg twice daily for 7 days
Text: Accordingly, the compounds according to the invention are particularly suitable for the oral treatment of generalized infections by fungi and yeasts in human and veterinary medicine. Since the hitherto available medicaments are not yet satisfactory (Lit.: Infection 2, (1974) 95-107), they represent a valuable addition to pharmacology. In addition, they may be used equally effectively for the local treatment of surface infections and for the treatment of infections of the mucosa excessible to local treatment. Typical diseases of thiskind, for the treatment of which the compounds of the present invention are particular useful, are for instance generalized candidoses, candidoses of the lungs, of the skin or of the genitals or generalized trichophytoses (tineas) or trichophytoses of the skin, of the nails or of the hair.
In order to determine the oral effectiveness of the compounds, groups of 10 mice each weighing approximately 20 g were each treated i.m for 2 days with 50 mg/kg of hydrocortisone to ensure effective development of the infection. The mice were then each infected i.v. with 500,000 Candida albicans germs and thereafter were treated twice daily for 7 days with 100 mg/kg of the substance to be tested. In addition to an infected, but untreated control group, one group was treated with the reference substance Miconazole for comparison.

[4] = system: Candida albicans; experiment: series dilution test in vitro, Cand. alb.; format: cell-based; design: key: .phi.: complete inhibition; (+): strong inhibition; +: moderate inhibition; ++: slight inhibition; +++: no inhibition; conditions: for inhibition of Cand. alb., 1st value: dilution 1: 10,000; for inhibition of Cand. alb., 2nd value: dilution 1: 100,000
Description: (§1) The new compounds and their salts are valuable agents for controlling fungi and yeasts and, in addition, are also active against several types of bacteria. To test the antimicrobial activity of the new compounds in vitro, they were tested in a series dilution test with dilutions of from 1:10,000 to 1:100,000 for their effectiveness against the germs Staphylococcus aureus, Trichophyton mentagrophytes and Candida albicans.

[5] = system: Staphylococcus aureus; experiment: series dilution test in vitro, Staph. aur.; format: cell-based; design: key: .phi.: complete inhibition; (+): strong inhibition; +: moderate inhibition; ++: slight inhibition; +++: no inhibition; conditions: for inhibition of Staph. aur., 1st value: dilution 1: 10,000; for inhibition of Staph. aur., 2nd value: dilution 1: 100,000
Description: as §1

[6] = system: Trichophyton mentagrophytes; experiment: series dilution test in vitro, Trichoph.; format: cell-based; design: key: .phi.: complete inhibition; (+): strong inhibition; +: moderate inhibition; ++: slight inhibition; +++: no inhibition; conditions: for inhibition of Trichoph., 1st value: dilution 1: 10,000; for inhibition of Trichoph., 2nd value: dilution 1: 100,000
Description: as §1

| Compound | LD50 [1] | LD50 (Lit.) [2] | animals still alive on the last day of the treatment [3] | inhibition of Cand. alb., 1st value [4] | inhibition of Cand. alb., 2nd value [4] | inhibition of Staph. aur., 1st value [5] | inhibition of Staph. aur., 2nd value [5] | inhibition of Trichoph., 1st value [6] | inhibition of Trichoph., 2nd value [6] |
| --- | --- | --- | --- | --- | --- | --- | --- | --- | --- |
| Clc1ccc(C(=Cc2ccc(Cl)cc2Cl)Cn2ccnc2)cc1 [A, 1-(2,4-dichlorophenyl)-2-(4-chlorophenyl)-3-(imidazolyl-1)-propene-1-nitrate] | ~1000 mg/kg | – | – | – | – | – | – | – | – |
| Clc1ccc(C=C(Cn2ccnc2)c2ccc(Cl)cc2)cc1 [B, 1-(4-chlorophenyl)-2-(4-chlorophenyl)-3-(imidazolyl-1)-propene-1-nitrate] | ~1000 mg/kg | – | – | – | – | – | – | – | – |
| Clc1ccc(C(=Cc2ccccc2)Cn2ccnc2)cc1 [C, 1-phenyl-2-(4-chlorophenyl)-3-(imidazolyl-1)-propene-1-nitrate] | ~1000 mg/kg | – | – | – | – | – | – | – | – |
| Clc1ccc(C=C(Cn2ccnc2)c2ccccc2)c(Cl)c1 [D, 1-(2,4-dichlorophenyl)-2-phenyl-3-(imidazolyl-1)-propene-1-nitrate] | ~1000 mg/kg | – | – | – | – | – | – | – | – |
| Clc1ccc(C=C(Cn2ccnc2)c2ccc(Cl)cc2Cl)c(Cl)c1 [E, 1,2-bis-(2,4-dichlorophenyl)-3-(imidazolyl-1)-propene-1-nitrate] | ~2000 mg/kg | – | – | – | – | – | – | – | – |
| Clc1ccc(C=C(Cn2ccnc2)c2ccc(Cl)cc2Cl)cc1 [F, 1-(4-chlorophenyl)-2-(2,4-dichlorophenyl)-3-(imidazolyl-1)-propene-1-nitrate] | ~2000 mg/kg | – | – | – | – | – | – | – | – |
| Clc1ccc(C(=Cc2ccc(Br)cc2)Cn2ccnc2)c(Cl)c1 [G, 1-(4-bromophenyl)-2-(2,4-dichlorophenyl)-3-(imidazolyl-1)-propene-1-nitrate] | ~1000 mg/kg | – | – | – | – | – | – | – | – |
| Clc1ccc(COC(Cn2ccnc2)c2ccc(Cl)cc2Cl)c(Cl)c1 (stereo not drawn) [Miconazole, 1-[2,4-dichloro-β-(2,4,-dichlorobenzyloxy)-phenethyl]-imidazole nitrate] | – | 578 mg/kg | 20% | – | – | – | – | – | – |
| Brc1ccc(C=C(Cn2ccnc2)c2ccc(Br)cc2)cc1 [n=0, R1=4-Br, R2=H, R3=4-Br, R4=H] | – | – | – | .phi. | ++ | .phi. | .phi. | .phi. | .phi. |
| Cc1ccc(C(=Cc2ccc(Cl)cc2Cl)Cn2ccnc2)cc1 [n=0, R1=4-CH3, R2=H, R3=2-Cl, R4=4-Cl] | – | – | – | .phi. | (+) | .phi. | .phi. | .phi. | .phi. |
| Clc1ccc(C(=Cc2ccc(Br)cc2)Cn2ccnc2)c(Cl)c1 [n=0, R1=4-Cl, R2=2-Cl, R3=4-Br, R4=H] | – | – | – | .phi. | ++ | .phi. | .phi. | .phi. | .phi. |
| Clc1ccc(C(=Cc2ccc(Cl)c(Cl)c2)Cn2ccnc2)c(Cl)c1 [n=0, R1=4-Cl, R2=2-Cl, R3=4-Cl, R4=3-Cl] | – | – | – | .phi. | ++ | .phi. | .phi. | .phi. | .phi. |
| Clc1ccc(C(=Cc2ccc(Br)cc2)Cn2ccnc2)cc1 [n=0, R1=4-Cl, R2=H, R3=4-Br, R4=H] | – | – | – | .phi. | ++ | .phi. | .phi. | .phi. | .phi. |
| Clc1ccc(C=C(Cn2ccnc2)c2ccc(Cl)cc2)cc1 [n=0, R1=4-Cl, R2=H, R3=4-Cl, R4=H] | – | – | – | .phi. | (+ ) | .phi. | .phi. | .phi. | .phi. |
| COc1ccc(C(=Cc2ccccc2)Cn2ccnc2)cc1 [n=0, R1=H, R2=4-OCH3, R3=H, R4=H] | – | – | – | .phi. | +++ | .phi. | .phi. | .phi. | .phi. |
| Clc1ccc(C=C2c3cc(Cl)ccc3CC2n2ccnc2)c(Cl)c1 (stereo not drawn) [n=1, R1=6-Cl, R2=H, R3=4-Cl, R4=2-Cl] | – | – | – | .phi. | +++ | .phi. | .phi. | .phi. | .phi. |
| Clc1ccc(C=C2c3cc(Cl)ccc3CC2n2ccnc2)cc1 (stereo not drawn) [n=1, R1=6-Cl, R2=H, R3=4-Cl, R4=H] | – | – | – | .phi. | ++ | .phi. | .phi. | .phi. | .phi. |
| Clc1ccc(C=C2c3ccccc3CC2n2ccnc2)cc1Cl (stereo not drawn) [n=1, R1=H, R2=H, R3=3-Cl, R4=4-Cl] | – | – | – | .phi. | ++ | .phi. | .phi. | .phi. | .phi. |
| Clc1ccc(C=C2c3ccccc3CC2n2ccnc2)cc1 (stereo not drawn) [n=1, R1=H, R2=H, R3=H, R4=4-Cl] | – | – | – | .phi. | ++ | .phi. | .phi. | .phi. | .phi. |
| Clc1ccc(C=C2c3ccccc3CCC2n2ccnc2)cc1 (stereo not drawn) [n=2, R1=H, R2=H, R3=H, R4=4-Cl] | – | – | – | .phi. | ++ | .phi. | .phi. | .phi. | .phi. |
| C(=C1c2ccccc2CCC1n1ccnc1)c1ccccc1 (stereo not drawn) [n=2, R1=H, R2=H, R3=H, R4=H] | – | – | – | .phi. | +++ | .phi. | .phi. | .phi. | .phi. |
